The text below walks through data of a melting point compilation (Tetko et al.).

Starred links: 1 amine or outer side, 2 acyl side, 3 side chain; linkers in the order of their positions; H or OH if unused. Positions of bridges follow the written chain, without caps; N, C: chain ends. Non-standard residues stand in square brackets, D forms with d. Residues, ends and D or L forms follow the SMILES beside them. *: point of attachment. X6 = CCC(C)C(N[*:1])C(O)CC(=O)OC(C(=O)C(C)C(=O)[*:2])C(C)C; Trt = c1ccc(C(c2ccccc2)(c2ccccc2)*)cc1; NMeY = CN[CH](Cc1ccc(O)cc1)C(=O)O; NMeL = CN[CH](CC(C)C)C(=O)O; Boc = CC(C)(C)OC(=O)*; NHNH2 = NN*

Regarding `Ic1cc(I)c(OCCOc2c(I)cc(I)cc2I)c(I)c1`, the melting point was in the range of 288 to 289 °C.

The molecule `N=C(NC(=O)OCc1ccccc1)N(CCCC(NC(=O)C(Cc1ccccc1)NC(=O)c1ccccc1)C(=O)Oc1cccc2ccccc12)C(=O)OCc1ccccc1` (configuration not stated) showed a melting point of 177 to 185 °C.

In turn, `Brc1c(Br)c(Br)c(Oc2nc(Oc3c(Br)c(Br)c(Br)c(Br)c3Br)nc(Oc3c(Br)c(Br)c(Br)c(Br)c3Br)n2)c(Br)c1Br` had a melting point of 320 to 325 °C.

`Cc1ccc(C(c2ccc(C)c(C(OS(C)(=O)=O)(C(F)(F)F)C(F)(F)F)c2)(C(F)(F)F)C(F)(F)F)cc1C(OS(C)(=O)=O)(C(F)(F)F)C(F)(F)F` returned a melting point of 135 °C.

In turn, `Nc1cccc(CN2C(=O)C3(COc4cc5c(cc43)OCCO5)c3ccccc32)n1` (configuration not stated) registered a melting point of 240 to 241 °C.

On to `NC(=O)c1c(I)c(C(=O)N(CC(O)CO)CC(O)CO)c(I)c(N(CC(O)CO)C(=O)CO)c1I` (configuration not stated), for which the melting point lay within 195 to 200 °C.

In the case of `O=C(NCC(COC(C(F)(F)F)(C(F)(F)F)C(F)(F)F)(COC(C(F)(F)F)(C(F)(F)F)C(F)(F)F)C(=O)O)OCC1c2ccccc2-c2ccccc21`, the melting point was in the range of 104 to 105 °C.

With `CO/N=C(\C(=O)N[C@@H]1C(=O)N2C(C(=O)OC(C)(C)C)=C(CI)SC[C@H]12)c1nc(C(c2ccccc2)(c2ccccc2)c2ccccc2)sc1N`, the melting point came to 150 °C.

The molecule `CCCCCCCCCCCCCCCCCCCCCCCC[C@@H](C(=O)O)[C@H](O)CCCCCCCCCCCCCCC[C@@H]1C[C@@H]1CCCCCCCCCCCCCCCCCCC(=O)[C@@H](C)CCCCCCCCCCCCCCCCCC` gave a melting point of 66 to 68 °C.

Molecule `C=CCCC(=O)Nc1c(I)c(C(=O)NC(COC(C)=O)COC(C)=O)c(I)c(C(=O)NC(COC(C)=O)COC(C)=O)c1I` registered a melting point of 162 to 164 °C.

The molecule `CCCCC(CC)COc1cc2c3cc(OCC(CC)CCCC)c(OCC(CC)CCCC)cc3c3c(OC)ccc(OC)c3c2cc1OCC(CC)CCCC` (configuration not stated) yielded a melting point of 54 to 56 °C.

For `Cc1cc(Cn2nnn(-c3cc(C(F)(F)F)cc(C(F)(F)F)c3)c2=O)ccc1N(C(=O)c1c(I)cccc1C(N)=O)C(C)(C)CS(C)=O` (configuration not stated), the melting point lay within 165 to 171 °C.

`O=c1[nH]c(=Cc2ccc(OCc3ccccc3)cn2)c(=O)[nH]c1=Cc1ccc(OCc2ccccc2)cn1` showed a melting point of 283 to 285 °C.

As for `CCC(O)C=CC=CC=CC(=O)OCC1OC(OC2C(CO)OC3(OCc4cc(O)cc(O)c43)C(O)C2OC(=O)C=CC=CCC(O)C(C)=CC=CCCC(C)CC)C(O)C(O)C1O` (configuration not stated), the melting point lay in the range of 193 to 197 °C.

Turning to `O=S(=O)(Cl)Cc1cccc(C(F)(F)F)c1`, the melting point amounted to 60 °C.

Turning to `NC(=NO)c1ccc(Cl)cc1Cl`, the melting point fell in the range of 149 to 151 °C.

The molecule `COc1cc(NC(=O)N2CCCC2)c(S(C)(=N)=O)cc1OC` (configuration not stated) yielded a melting point of 312 to 314 °C.

In turn, `O=P(O)(O)CN(CP(=O)(O)O)CP(=O)(O)O` yielded a melting point of 215 °C.

`CCc1c(CC[Si](Cl)(Cl)Cl)c(CC[Si](Cl)(Cl)Cl)c(CC[Si](Cl)(Cl)Cl)c(CC[Si](Cl)(Cl)Cl)c1CC[Si](Cl)(Cl)Cl` gave a melting point of 195 to 198 °C.

`C=C(C)[C@@H]1CC[C@]2(C(=O)N[C@@H]3C[C@H](C(=O)OCc4ccccc4)C3(C)C)CC[C@]3(C)[C@H](CC[C@@H]4[C@@]5(C)CC[C@H](OC(=O)CC(C)(C)C(=O)O)C(C)(C)[C@@H]5CC[C@]43C)[C@@H]12` had a melting point of 64.7 to 100 °C.

In turn, `COc1cc(OC)c(/C=C/C(c2ccc(OC)c(NC(=O)CC(=O)O)c2)S(=O)(=O)C(/C=C/c2c(OC)cc(OC)cc2OC)c2ccc(OC)c(NC(=O)CC(=O)O)c2)c(OC)c1` (configuration not stated) gave a melting point of 118 to 121 °C.

Regarding `CC(C)[C@H](NC(=O)N(C)Cc1cscn1)C(=O)N[C@@H](Cc1ccccc1)[C@H](O)[C@@H](O)[C@H](Cc1ccccc1)NC(=O)[C@@H](NC(=O)N(C)Cc1csc(N)n1)C(C)C`, the melting point is 118 to 120 °C.

`CCCCCCCCCCSc1c(SCCCCCCCCCC)c(SCCCCCCCCCC)c(C(O)=NCCO)c(C(=O)O)c1SCCCCCCCCCC`: the melting point fell in the range of 57 to 58 °C.

For `CCCCCCCCCCCCc1ccc(N=Nc2ccc(C(N)CCNC(=O)CCN(CCC(=O)NCCN(C)c3ccc(N=Nc4ccc(CCCCCCCCCCCC)cc4[N+](=O)[O-])cc3)c3ccc(N=Nc4ccc(CCCCCCCCCCCC)cc4[N+](=O)[O-])cc3)cc2)c([N+](=O)[O-])c1` (configuration not stated), the melting point lay in the range of 127 to 129 °C.

`CC(C)CC(NC(=O)OC(C)(C)C)C(=O)NCC(=O)NCC(=O)NC(C)C(=O)NCC(=O)NC(CSC(c1ccccc1)(c1ccccc1)c1ccccc1)C(=O)NC(CCCCNC(=O)OC(C)(C)C)C(=O)NC(CC(N)=O)C(=O)NC(Cc1ccccc1)C(=O)NC(Cc1ccccc1)C(=O)NN` (configuration not stated) (Boc-LGGAGC(Trt)K(Boc)NFF-NHNH2; configuration not given here) came in with a melting point of 239 to 242 °C.

`CCCCc1nn(-c2cc(NC(=O)c3ccccc3)ccc2C(F)(F)F)c(=O)n1Cc1ccc(-c2ccccc2S(=O)(=O)NC(=O)c2ccccc2Cl)cc1F` showed a melting point of 210 to 212 °C.

As for `CC(=O)OCC(CNC(=O)c1c(I)c(C(=O)NCC(COC(C)=O)OC(C)=O)c(I)c(N2C(=O)COCC2COC(C)=O)c1I)OC(C)=O` (configuration not stated), the melting point lay in the range of 210 to 212 °C.

`CCCCOC(=O)Nc1nc(CN(C)C(=O)N[C@H](C(=O)N[C@@H](Cc2ccccc2)C[C@H](O)[C@H](Cc2ccccc2)NC(=O)[C@@H](NC(=O)N(C)Cc2csc(NC(=O)OCCCC)n2)C(C)C)C(C)C)cs1` displayed a melting point of 115 to 120 °C.

`CC(C)[C@H](NC(=O)N(C)Cc1csc(NC(=O)OC(C)(C)C)n1)C(=O)N[C@@H](Cc1ccccc1)C[C@H](O)[C@H](Cc1ccccc1)NC(=O)[C@@H](NC(=O)N(C)Cc1csc(NC(=O)OC(C)(C)C)n1)C(C)C` came in with a melting point of 115 to 120 °C.

The molecule `CCCCCCCCCCCCN(CCCCCCCCCCCC)S(=O)(=O)c1cc(NS(=O)(=O)c2ccc(NC(C)=O)c3c(O)c(N=Nc4ccccc4OC)ccc23)c(O)c2ccccc12` yielded a melting point of 200 to 202 °C.

As to `N#Cc1cccc(N2CCOCC2)c1`, the melting point was found to be 105 °C.

On to `CC(C)OCCOc1ccc(CCCOc2nn(C)cc2CC(=O)O)c(Oc2ncc(C(F)(F)F)cc2Cl)c1`, for which the melting point is 104 °C.

Take `C=COC(=O)CCC`: the melting point is -80 °C.

In turn, `CC(C)[C@H](NC(=O)OCc1ccccn1)C(=O)N[C@@H](Cc1ccccc1)[C@H](O)[C@@H](O)[C@H](Cc1ccccc1)NC(=O)[C@@H](NC(=O)N(C)Cc1csc(N)n1)C(C)C` displayed a melting point of 188 to 192 °C.

Turning to `CCCCCCCCCCCCCCCCCCSCCOC1OC(COC(C)=O)C(OC2OC(COC(C)=O)C(OC3OC(COC(C)=O)C(OC(C)=O)C(OC(C)=O)C3OC(C)=O)C(OC(C)=O)C2OC(C)=O)C(OC(C)=O)C1N1C(=O)c2ccccc2C1=O` (configuration not stated), the melting point was in the range of 150 to 152 °C.

With `[C-]#[N+]Cc1nc2ccccc2o1`, the melting point was in the range of 57 to 57.5 °C.

With `CCC(C)C1NC(=O)C(NC(=O)C(CC(C)C)N(C)C(C)=O)C(C)OC(=O)C(Cc2ccc(OC)cc2)N(C)C(=O)C2CCCN2C(=O)C(CC(C)C)NC(=O)C(C)C(=O)C(C(C)C)OC(=O)CC1O` (configuration not stated) (Ac-[NMeL]T[X6]LP[NMeY](Me); ester 2-C; configuration not given here), the melting point was in the range of 124 to 126 °C.

The molecule `CCC(Cc1c(I)cc(I)c(NC(=O)CCCCCNC(=O)C(COCc2ccccc2)N2CCNCCNCCNCC2)c1I)C(=O)O` (configuration not stated) returned a melting point of 144 °C.

`Cc1c(C2=CC(c3c(C)n(Cc4ccc(Cl)cc4)c4ccc([N+](=O)[O-])cc34)(c3c(C)n(Cc4ccc(Cl)cc4)c4ccc([N+](=O)[O-])cc34)OC2=O)c2cc([N+](=O)[O-])ccc2n1Cc1ccc(Cl)cc1`: the melting point lay within 227 to 228 °C.

`CC(C)(C)CC(C)(C)c1cc(-n2nc3ccc(-c4ccc(-c5ccc6nn(-c7cc(C(C)(C)CC(C)(C)C)cc(C(C)(C)c8ccccc8)c7O)nc6c5)cc4)cc3n2)c(O)c(C(C)(C)c2ccccc2)c1` displayed a melting point of 247 to 249 °C.

`CCCCCCCCCCCCc1c2c(c(CCCCCCCCCCCC)c3c1-c1ccc(Br)cc1C3=C(C#N)C#N)-c1ccc(Br)cc1C2=C(C#N)C#N`: the melting point lay within 136 to 137 °C.

Take `CCCCCCCCCCCCc1ccsc1-c1ccc2c(c1)=C(C(C#N)C#N)c1cc3c(cc1=2)C(C(C#N)C#N)=c1cc(-c2sccc2CCCCCCCCCCCC)ccc1=3`: the melting point was in the range of 232 to 233 °C.

In turn, `CC(C)CC1C(=O)OC(Cc2ccccc2)C(=O)N(C)C(CC(C)C)C(=O)OC(C)CN(C)C(CC(C)C)C(=O)OC(Cc2ccccc2)C(=O)N(C)C(CC(C)C)C(=O)OC(C)CN1C` (configuration not stated) yielded a melting point of 130 to 132 °C.

In turn, `FC(F)(F)C(F)(F)C(F)(F)C(F)(F)C(F)(F)C(F)(F)c1nc2c(Br)sc(Br)c2nc1C(F)(F)C(F)(F)C(F)(F)C(F)(F)C(F)(F)C(F)(F)F` yielded a melting point of 46 to 47 °C.

`CC(=O)OCC1OC(OC2C(COC(C)=O)OC(OC3C(COC(C)=O)OC(OCCBr)C(OC(C)=O)C3OC(C)=O)C(OC(C)=O)C2OC(C)=O)C(OC(C)=O)C(OC(C)=O)C1OC(C)=O` (configuration not stated) came in with a melting point of 179 to 181 °C.

The molecule `O=C(Nc1ccc(Cl)cc1)NC1CCN(S(=O)(=O)c2ccc(C(=O)O)cc2)CC1` came in with a melting point of 266 to 270 °C.

Consider `COc1ccc(C(O)CNCc2ccccc2[N+](=O)[O-])cc1OC` (configuration not stated), for which the melting point lay within 120 to 121 °C.

For the molecule `COC(=O)C(CCNC(=O)c1ccccc1C(=O)O)Oc1c(Br)cc(-c2ccc(-c3c(Cc4ccccc4)sc4ccccc34)cc2)cc1Br` (configuration not stated), the melting point is 95 to 97 °C.

As to `CC(CCC(=O)O)C1CCC2C3C(O)CC4CC(NC(=O)CNC(=O)CN(CCN(CC(=O)O)CC(=O)O)CCN(CC(=O)O)CC(=O)O)CCC4(C)C3CC(O)C12C` (configuration not stated), the melting point lay within 120 to 125 °C.

`COC(=O)CNC(=O)[C@H](NC(=O)[C@@H](CSC(c1ccccc1)(c1ccccc1)c1ccccc1)NC(=O)[C@@H](CCCCNC(=O)OC(C)(C)C)NC(=O)C[C@H](O)C=CCCSC(c1ccccc1)(c1ccccc1)c1ccccc1)C(C)C` gave a melting point of 85 to 87 °C.

As to `O=S(=NCCN1CCOCC1)(c1cccs1)c1cccs1`, the melting point turned out to be 190 °C.

Turning to `CCCCCCCCCS(=O)(=O)c1c(S(=O)(=O)CCCCCCCCC)c(S(=O)(=O)CCCCCCCCC)c(S(=O)(=O)CCCCCCCCC)c(S(=O)(=O)CCCCCCCCC)c1S(=O)(=O)CCCCCCCCC`, the melting point stood at 95 °C.

What is called melting point is the temperature of the solid-liquid transition.
